Counter-ions that a name gives are not always drawn.
Legend:
[1] = turbidity / appearance of an aqueous solution containing the crystal; assay type: physicochemical; settings: for turbidity Abs(600 nm): aqueous solution, absorbance 600 nm
Experimental: (§1) The crystals obtained in the above examples were filled into vials and the residue rate thereof was examined through the acceleration stability test at 40° C. Further, the turbidity of an aqueous solution containing the crystal was determined.
(§2) The monosulfate crystal of compound (I) obtained in Example 9 was filled into vials and the residue rate thereof was examined through the acceleration stability test at 40° C. Further, the turbidity was determined.
(§3) The crystals obtained in Example 10 were filled into vials and the residue rate thereof was examined through the acceleration stability test at 40° C. Further, the turbidity of solutions was determined.

[2] = acceleration stability test at 40° C. of crystals filled into vials (residue rate, appearance); assay type: physicochemical; settings: for appearance (of powder) / residue rate (%): 40° C., vial
Experimental: as §1, §2
As a reference compound, used was a lyophilization product of monohydrochloride of compound (I) (non-crystal, KF value: 1.7%, 0.6 H2O) obtained according to the method of Example 6-2 of WO 00/32606.
as §3

| turbidity Abs(600 nm) ([1]; after 1 month at 40° C.) | turbidity Abs(600 nm) ([1]; initial) | appearance (of powder) ([2]; 1 month) | residue rate (%) ([2]; 1 month) | appearance (of powder) ([2]; initial) | residue rate (%) ([2]; initial) | appearance of solution ([1]; after 1 month at 40° C.) | appearance of solution ([1]; after 2 month at 40° C.) | turbidity Abs(600 nm) ([1]; after 2 month at 40° C.) | appearance of solution ([1]; initial) | appearance (of powder) ([2]; 2 month) | residue rate (%) ([2]; 2 month) | turbidity upon being dissolved into water (in words) ([1]; after storage at 40° C.) | stability (in words) ([2]; acceleration stability test at 40° C.) | Structure (SMILES) |
| --- | --- | --- | --- | --- | --- | --- | --- | --- | --- | --- | --- | --- | --- | --- |
| 0.007 | 0.006 | white | 99.0% | white | 100.0% |  |  |  |  |  |  |  |  | CCO/N=C(\C(=O)N[C@@H]1C(=O)N2C(C(=O)[O-])=C(C[n+]3cccc4c3NCN4CCCNC)CS[C@H]12)c1nsc(N)n1 [Example 6(2)] |
| 0.565 | 0.001 | pale | 94.8% | pale | 100.0% | Yellow | Yellow | 1.338 | pale | pale | 92.9% |  |  | CCO/N=C(\C(=O)N[C@@H]1C(=O)N2C(C(=O)[O-])=C(C[n+]3cccc4c3ncn4CCCNC)CS[C@H]12)c1nsc(N)n1 [hydrochloride, reference compound] |
| 0.011 | 0.000 | white | 99.6% | white | 100.0% |  |  |  |  |  |  |  |  | CCO/N=C(\C(=O)N[C@@H]1C(=O)N2C(C(=O)[O-])=C(C[n+]3cccc4c3NCN4CCCNC)CS[C@H]12)c1nsc(N)n1 [Example 6(1)] |
| 0.002 | 0.002 |  | 98.5% | white powder | 100.0% |  |  |  |  |  |  | turbidity was hardly observed | high stability for a long period | CCO/N=C(\C(=O)N[C@@H]1C(=O)N2C(C(=O)[O-])=C(C[n+]3cccc4c3NCN4CCCNC)CS[C@H]12)c1nsc(N)n1 [Example 10] |

Reference: patent US20040157821A1, “Sulfate of cephem compound” (priority 2001, published 2004)
